Measured values reported in ChEMBL document CHEMBL1275247, “Pharmacokinetics and safety of CXA-101, a new antipseudomonal cephalosporin, in healthy adult male and female subjects receiving single- and multiple-dose intravenous infusions” (Antimicrob Agents Chemother, 2010).

What was measured:
[1] = Renal clearance in healthy human at 250 mg, iv administered as single dose as 1 hr iv infusion; format: ADME, organism-based, Kidney; conditions: in vivo, read-out: CL_renal
[2] = Half-life in plasma of healthy human 1000 mg, iv administered as 1 hr infusion every 8 hrs for 10 days measured on day 1; format: ADME, organism-based
[3] = Mean residence time in healthy human at 2000 mg, iv administered as single dose as 1 hr iv infusion; format: ADME, organism-based; conditions: in vivo
[4] = Renal clearance in healthy human at 1500 mg, iv administered as 1 hr infusion every 12 hrs for 10 days measured on day 1; format: ADME, organism-based, Kidney; conditions: in vivo, read-out: CL_renal
[5] = system: Homo sapiens; experiment: Toxicity in healthy human assessed as occurrence of headache at 1000 mg, iv administered as single dose as 1 hr iv infusion; format: organism-based; conditions: in vivo
[6] = Half-life in plasma of healthy human 1000 mg administered as single ascending dose, iv for 1 hr infusion; format: ADME, organism-based
[7] = Drug recovery in urine of healthy human at 1500 mg, iv administered as single dose as 1 hr iv infusion after 24 hrs; format: ADME, organism-based; conditions: read-out: Activity
[8] = Volume of distribution at steady state in healthy human at 250 mg, iv administered as single dose as 1 hr iv infusion; format: ADME, organism-based; conditions: in vivo
[9] = Tmax in healthy human at 2000 mg, iv administered as single dose as 1 hr iv infusion; format: ADME, organism-based; conditions: in vivo
[10] = Cmax in healthy human at 500 mg, iv administered as 1 hr infusion every 8 hrs for 10 days measured on day 1; format: ADME, organism-based; parameters: dose 500 mg, route intravenous; conditions: in vivo
[11] = Tmax in healthy human at 1000 mg, iv administered as single dose as 1 hr iv infusion; format: ADME, organism-based; conditions: in vivo
[12] = AUC (0 to infinity) in healthy human at 500 mg, iv administered as 1 hr infusion every 8 hrs for 10 days measured on day 1; format: ADME, organism-based; parameters: dose 500 mg, route intravenous, time infinity; conditions: plasma
[13] = Clearance in healthy human at 1000 mg, iv administered as single dose as 1 hr iv infusion; format: ADME, organism-based; conditions: in vivo
[14] = Clearance in healthy human at 2000 mg, iv administered as single dose as 1 hr iv infusion; format: ADME, organism-based; conditions: in vivo
[15] = Mean residence time in healthy human at 1500 mg, iv administered as 1 hr infusion every 12 hrs for 10 days measured on day 1; format: ADME, organism-based; conditions: in vivo
[16] = AUC (0 to infinity) in healthy human at 1500 mg, iv administered as 1 hr infusion every 12 hrs for 10 days measured on day 1; format: ADME, organism-based; parameters: dose 1500 mg, route intravenous, time infinity; conditions: plasma

CL renal at 1 h [1]: 101 mL/min
half-life [2]: 2.38 h
MRT [3]: 2.54 h
CL renal [4]: 119 mL/min
half-life [6]: 2.25 h
dose excreted at 24 h [7]: 93.4%
Vd [8]: 13.1 L
Tmax [9]: 1.06 h
Cmax [10]: 34300 ng/mL
Tmax [11]: 1.05 h
AUC(0-inf) [12]: 88.1 µg·h/mL
clearance [13]: 110 mL/min
clearance [14]: 96.9 mL/min
MRT [15]: 2.64 h
AUC(0-inf) [16]: 219 µg·h/mL
SMILES: Cn1c(N)c(NC(=O)NCCN)c[n+]1CC1=C(C(=O)O)N2C(=O)[C@@H](NC(=O)/C(=N\OC(C)(C)C(=O)[O-])c3nsc(N)n3)[C@H]2SC1 [CEFTOLOZANE]
Activity [5]: Non-toxic
